Legend:
[1] = Dissolution test by stirring method in saline; conditions: per BET surface area, mass ratio 1:50, stirring 500 rpm, 37° C., 3 hours
Experimental: The amount of dissolved Zn^2+ ions is measured in the present description, as follows: The surface areas of samples, which are produced with varying pH values at production by the same process as that for Preparation Example 2 of Examples to be described later, are measured beforehand by the BET method (BET specific surface area analyzer: High Precision, Multi-Analyte Gas Absorption Analyzer, manufactured by Quantachrome Instruments Japan G.K.). For each sample, the Zn^2+ ion concentration after stirring in saline is measured with an ICP emission spectrometer (ICPE-9000, manufactured by Shimadzu Corporation) to thereby obtain the amount of dissolved Zn^2+ ions, and then the amount of dissolved Zn^2+ ions is divided by the previously measured surface area. The mass ratio between each sample and the saline is set to 1:50, and the amount of Zn^2+ ions dissolved in the saline is measured after 3-hour stirring at 500 rpm at 37° C. by means of a rotor. […]
A dissolution test by a stirring method was conducted on 0.6 g each of dry powders obtained in Preparation Example 2 using 30 g of saline, and the amount of dissolved Zn^2+ ions and the pH were measured. […] Then the pH and the Zn^2+ ion concentration after the dissolution test were measured. […]

[2] = test system: fibroblast; conditions: cited from earlier work
[3] = test system: skin; conditions: in vivo; cited from earlier work

Compound | Amount of dissolved Zn^2+ ions after dissolution test [1] | zinc ion concentration that does not exhibit toxicity to a fibroblast [2] | zinc ion level leading to increased inflammatory cell infiltration in skin and remarkably delayed reepithelization [3]
[OH-].[OH-].[Zn+2] [zinc hydroxide] | less than 0.1 μg/m^2 |  | 
[O]=[Zn] [zinc oxide] | sufficient |  | 
[Zn+2] [zinc ions] |  | not more than 500 μmol/L | not less than 15 mmol/L
